Source: article PMC12844208, “Screening for Peptides to Bind and Functionally Inhibit SARS-CoV-2 Fusion Peptide Using Mirrored Combinatorial Phage Display and Human Proteomic Phage Display” (Molecules, 2026)

Tested on: spike-FP12 peptide
Assay type: binding, SARS-CoV-2

Sequence | % Count | Count (read counts of phage display binding to FP)
DTLLPTQQAEVLHPVV | 2.70% | 1392
NFRLSEHRQALAAAKH | 0.00% | 2
HPNIKRVTPQRKVFRS | 0.01% | 3
GPDRNFRLSEHRQALA | 6.59% | 3393
TLPFGDVEYVDLDAFL | 0.29% | 148
GSSYAEMEVMKMIMTL | 0.06% | 31
QLEHVKLFMQDLSAML | 9.07% | 4673
SFQYADIYEQMMLTGL | 0.01% | 5
